# Read-outs that look alike come from different tables or passages of the source.
# How the values were obtained:
# [1] = use of 4% HQ versus 5% Vitamin C; cited from earlier work
# [2] = Solubility of optional additional components in polyol solvents; format: physicochemical
# From the text: Additional ingredients were chosen for their compatibility with (e.g., miscibility in) 1,3 propanediol, 1,2 propanediol, and 1,3 butanediol.
# [3] = cited from earlier work
# [4] = Solubilization / recrystallization of AA with urea in 1,3 propanediol; format: physicochemical
# From the text: Next, concentrations of ascorbic acid beyond the aforementioned maximum concentration are solubilized, using urea as a co-solvent.
# [5] = 20% urea solution, cited from earlier work
# [6] = Comparative studies: solubilization with heating and crystallization on room temperature storage; format: physicochemical; settings: ascorbic acid together with urea in propylene glycol, butylene glycol and propanediol
# Description: This example was reproduced.
# All mixtures were heated to 85° C.
compound,measurement,setting,value
"O=C1O[C@H]([C@@H](O)CO)C(O)=C1O [AA, L-ascorbic acid]",improvement,[1],62.5%
COc1cc(CC(C(C)=O)C(C)=O)ccc1O [Acetyl zingerone],solubility,"[2]; in 1,3 propanediol, 1,2 propanediol and 1,3 butanediol at 0.5-1%",readily soluble
"O=C(O)CCCCCCCC(=O)O [AzA, Azelaic acid, reference compound]",pKa,[3],4.15
same,concentration solubilized,"[2]; in 1,3 propanediol",up to 10%
same,concentration solubilized,"[2]; with 10% AA, 5% U in a 1,3 propanediol base",7.5%
"Oc1ccc(O)cc1 [HQ, hydroquinone]",improvement,[1],93%
same,side-effects,[1],68.7%
"NC(N)=O [U, urea]",minimum amount U required to solubilize 20% AA,[4],~10%
same,saturation of U reached before recrystallization of U,[4],~27.8%
same,pH,[5]; after 11 months at room temperature,8.8
same,pH,[5]; start,7.4
same,maximum concentrations soluble before urea starts to precipitate (the ceiling),[6],20%
"CC1(C)[C@@H](O[C@H]2O[C@H](C(=O)O)[C@@H](O)[C@H](O)[C@H]2O[C@@H]2O[C@H](C(=O)O)[C@@H](O)[C@H](O)[C@H]2O)CC[C@]2(C)[C@H]3C(=O)C=C4[C@@H]5C[C@@](C)(C(=O)O)CC[C@]5(C)CC[C@@]4(C)[C@]3(C)CC[C@@H]12 [glycyrrhizic acid, Glycyrrhizic acid]",solubility,"[2]; in 1,3-propanediol",shows solubility
Madecassoside,solubility,"[2]; at a concentration of 0.2% in 1,3 propanediol, 1,2 propanediol and 1,3 butanediol",soluble

# Source: US20210228467A1, “High-Potency Vitamin C Topical Formulations” (Baek Clinical Inc., priority 2018, published 2021)
